Patent US20110287494A1, “PROCESS FOR PRODUCTION OF OPTICALLY ACTIVE AMINE DERIVATIVE” (Daicel Chemical Industries Ltd, priority 2008, published 2011)
Entries after “also recorded” stand apart in the source; their conditions may differ.

Columns and labels:
[1] = system: imine reductase responsible for the reduction of 2-methyl-1-pyrroline (crude enzyme solution); assay: Coenzyme dependency of 2-methyl-1-pyrroline reduction by crude enzyme solution; type: biochemical, Streptomyces sp. GF3587; conditions: 10 mM coenzyme, 10 mM 2-methyl-1-pyrroline, pH 7.0, 30° C.
Method: (§1) The cells of Streptomyces sp. GF3587 were cultured according to Example 1, and then crushed with glass beads. A crude enzyme solution was prepared by removing intact microbial cells and cell debris by centrifugation. 100 μl of the crude enzyme solution was added to 100 mM phosphate buffer (pH 7.0) containing 10 mM 2-methyl-1-pyrroline and 10 mM NADH or NADPH. During incubation of the mixture at 30° C., absorbance was measured at 340 nm to monitor the decrease of NAD(P)H. The enzymatic activity was determined by this assay.

[2] = system: imine reductase purified from GF3587; assay: Substrate specificity of imine reductase purified from GF3587 (decrease of NADPH absorbance at 340 nm); type: biochemical, Streptomyces sp. GF3587; conditions: for Relative Activity: 2-MPN = 100; for level of activity of reducing the compound, activity of reducing 2-methyl-1-pyrroline taken as 100: relative to 2-MPN = 100
Method: To assess the substrate specificity of the imine reductase purified from GF3587, the activities of the enzyme towards the compounds listed in Table 4 were compared.
One ml of reaction mixtures having the composition described below were incubated at […]. The reaction mixtures were assayed to determine the decrease in absorbance (340 nm) of NADPH due to the generation of (R)-2-methylpyrrolidine. An imine reductase solution (2.04 U/ml) was added to reaction solutions containing each substrate compound shown in Table 4 to initiate the reaction. The absorbance of each reaction solution was determined at 340 nm after two minutes of incubation.
The relative activity shown in the table is defined as relative activity when the enzymatic activity on […] (2-MPN) is taken as 100.

[3] = Optimal temperature of imine reductase; type: biochemical, Streptomyces sp. GF3587; conditions: pH 7.0, 10 to 70° C. tested
Method: The imine reductase purified from GF3587 was tested for its optimal temperature. 1 ml of reaction solution having the composition described below were incubated at 10 to 70° C. to measure the decrease of absorbance (340 nm) of NADPH due to the generation of (R)-2-methylpyrrolidine. After the reaction solutions were pre-incubated at each temperature for five minutes, an imine reductase solution (12.3 U/ml) was added thereto to initiate the reaction. After two minutes, the absorbance of the reaction solutions was measured at 340 nm. The amount of imine reductase that catalyzes the decrease (oxidation) of 1 μmol of NADPH per minute when incubated at 30° C. in the reaction solution having the composition described below is defined as 1 U. The result is shown in FIG. 7.

[4] = Optimal pH of imine reductase; type: biochemical, Streptomyces sp. GF3587; conditions: 30° C.
Method: Furthermore, the imine reductase purified from GF3587 was tested for its optimal pH. The reaction was started by adding an imine reductase (6.82 U/ml) solution to reaction mixtures having the same composition as shown in (1), except that various types of buffer agents were added. The mixtures were incubated at 30° C. for two minutes. The buffers used in this experiment and their pH are listed below.
100 mM citrate buffer: pH 3 to 6
100 mM sodium acetate buffer: pH 4 to 5.5
100 mM potassium phosphate buffer: pH 6 to 8
100 mM Tris-HCl buffer: pH 7.5 to 9
100 mM glycine-sodium hydroxide buffer: pH 9 to 11
The reaction solutions were assayed to determine the decreases in absorbance (340 nm) of NADPH due to the generation of (R)-2-methylpyrrolidine. […] Furthermore, 80% or more of the maximal activity was retained at pH 6.0 to 7.5.

[5] = Imine-reducing activity of microbial cell extracts of recombinant E. coli JM109; type: biochemical; conditions: protein expressed in E. coli
Method: as §1
The E. coli JM109 strain that had been transformed with an imine reductase expression plasmid pSUSRIR1 was cultured in an ampicillin-containing liquid LB medium at 30° C. overnight. After adding 0.1 mM IPTG, the cells were further cultured for four hours.
The microbial cells were harvested by centrifugation, and then suspended in 100 mM potassium phosphate buffer (pH 7.0) containing 1 mM DTT. The microbial cells were crushed in Sealed-Type Ultrasonic Cell Disruptor UCD-200™ (Cosmo Bio). After centrifugation, the supernatant was collected as microbial cell extract. […] After adding 0.1 mM IPTG the cells were further cultured for four hours. Using the same method, the microbial cells were also crushed to prepare microbial cell extract.
Each microbial cell extract was assayed for its imine-reducing activity towards 2-methyl-1-pyrroline. […]

NC(=O)C1=CN([C@@H]2O[C@H](COP(=O)(O)OP(=O)(O)OC[C@H]3O[C@@H](n4cnc5c(N)ncnc54)[C@H](OP(=O)(O)O)[C@@H]3O)[C@@H](O)[C@H]2O)C=CC1 [NADPH, reduced nicotinamide adenine dinucleotide phosphate]
activity with the coenzyme, activity with NADPH taken as 100% [1]: 100%

C(=NCc1ccccc1)c1ccccc1 [N-Benzylidenebenzylamine]
Relative Activity ([2]; substrate 10 mM): 30

CC1=NCCC1 [2-Methyl-1-pyrroline (2-MPN), 2-Methyl-1-pyrroline]
level of activity of reducing the compound, activity of reducing 2-methyl-1-pyrroline taken as 100 [2]: 100%
enzymatic activity corresponding to relative activity 100 ([2]; substrate 10 mM): 2.04 U/mL
Relative Activity ([2]; substrate 10 mM): 100

CC(=NO)c1ccccc1 [Acetophenone oxime]
Relative Activity ([2]; substrate 1 mM): 0

Cc1ncc[nH]1 [2-Methylimidazole]
Relative Activity ([2]; substrate 10 mM): 0

Nc1nc2c(c(=O)[nH]1)N=C(CNc1ccc(C(=O)N[C@@H](CCC(=O)O)C(=O)O)cc1)CN2 [Dihydrofolic acid]
level of activity of reducing the compound, activity of reducing 2-methyl-1-pyrroline taken as 100 [2]: 7.6%
Relative Activity ([2]; substrate 0.05 mM): 7.6

NC(=O)C1=CN([C@@H]2O[C@H](COP(=O)(O)OP(=O)(O)OC[C@H]3O[C@@H](n4cnc5c(N)ncnc54)[C@H](O)[C@@H]3O)[C@@H](O)[C@H]2O)C=CC1 [NADH]
activity with the coenzyme, activity with NADPH taken as 100% [1]: 7%

Cc1cnccn1 [2-Methylpyrazine]
Relative Activity ([2]; substrate 10 mM): 0

C1=NCCCN1 [1,4,5,6-Tetrahydropyrimidine]
Relative Activity ([2]; substrate 10 mM): 0

C/C(=N\c1ccccc1)c1ccccc1 [N-((E/Z)-N-(1-phenylethylidene)aniline]
level of activity of reducing the compound, activity of reducing 2-methyl-1-pyrroline taken as 100 [2]: 29%
Relative Activity ([2]; substrate 25 mM): 29

Cc1ncccn1 [2-Methylpyrimidine]
Relative Activity ([2]; substrate 10 mM): 0

Cc1cccs1 [2-Methylthiophene]
Relative Activity ([2]; substrate 5 mM): 0

Cc1nccs1 [2-Methylthiazole]
Relative Activity ([2]; substrate 10 mM): 0

Cc1ccco1 [2-Methylfuran]
Relative Activity ([2]; substrate 10 mM): 0

B1: imine reductase purified from GF3587: NADPH-dependent imine reductase purified from Streptomyces sp. GF3587, amino acid sequence SEQ ID NO: 6 (protein)
chain: MGDNRTPVTVIGLGLMGQALAAAFLEAGHTTTVWNRSAGKAEQLVSQGAVQAATPADAVAASELVVVCLSTYDNMHDVIGSLGESLRGKVIVNLTSGSSDQGRETAAWAEKQGVEYLDGAIMITPPGIGTETAVLFYAGTQSVFEKYEPALKLLGGGTTYLGTDHGMPALYDVSLLGLMWGTLNSFLHGVAVVETAGVGAQQFLPWAHMWLEAIKMFTADYAAQIDAGDGKFPANDATLETHLAALKHLVHESEALGIDAELPKYSEALMERVISQGHAKNSYAAVLKAFRKPSE
modifications: Streptomyces sp. GF3587
optimal temperature [3]: 50 °C
optimal pH [4]: 6.5

B2: Q1EQE0: putative protein of Streptomyces kanamyceticus, SEQ ID NO: 17, imine reductase homologue (protein, listed as Streptomyces kanamyceticus)
chain: MPDNPSTKGRMMRNQQAEHTPVTVIGLGLMGQALAGAFLGAGHPTTVWNRTAAKAEPLVARGAKSAGSVAEAVAASPLVVVCVSDYDAVHALLDPLDGTALQGRTLVNLTSGTSAQARERAAWADGRGADYLDGAILAGPAAIGTADAVVLLSGPRSAFDPHASALGGLGAGTTYLGADHGLASLYDAAGLVMMWSILNGFLQGAALLGTAGVDATTFAPFITQGIGTVADWLPGYARQIDDGAYPADDAAIDTHLATMEHLIHESEFLGVNAELPRFIKALADRAVADGHGGSGYPALIEQFRTHSGK
imine-reducing activity in words [5]: exhibited the imine-reducing activity; also recorded: had imine-reducing activity
